# Calls of active or inactive are those of the source.
# Columns and labels:
# [1] = target: SWI/SNF-related matrix-associated actin-dependent regulator of chromatin subfamily A member 2 (Homo sapiens, UniProt P51531); assay: Luminescence-based cell-based high throughput dose response assay to identify activators of the function of SWI/SNF related, matrix associated, actin dependent regulator of chromatin, subfamily a, member 2 (SMARCA2, BRM).; type: functional
# [2] = Counterscreen for activators of the function of SWI/SNF related, matrix associated, actin dependent regulator of chromatin, subfamily a, member 2 (SMARCA2, BRM): Luminescence-based cell-based high throughput dose response assay to identify non-selective compounds using the VP16 reporter assay.; type: functional
# [3] = target: Prothrombin (Bos taurus, UniProt P00735); assay: thrombin inhibition, dose response, biochemical, fluorescence polarization, uHTS hits (AID 602369); type: functional
# [4] = target: 26S proteasome non-ATPase regulatory subunit 14 (Homo sapiens, UniProt O00487); assay: inhibition of proteasome subunit RPN11 – biochemical, fluorescence polarization, uHTS hits, confirmation (AID 602368); type: functional
# [5] = target: 72 kDa type IV collagenase (Homo sapiens, UniProt P08253); assay: Dose Response validation of uHTS RPN11 inhibitor hits using a MMP-2 Fluorescence assay.; type: functional
# [6] = target: Albumin (Bos taurus, UniProt P02769); assay: Counterscreen for inhibitors of T-cell receptor (TCR)-CD3 interaction: Fluorescence-based biochemical high throughput dose response assay to identify inhibitors of T-cell receptor (TCR)-CD3 interaction using a TAMRA-labeled BSA probe.; type: functional
# [7] = AlphaScreen signal interference compounds, dose response, artefact control for ARNT-TACC3 interaction inhibitor project, biochemical, luminescence, cherry-pick (AID 651705); type: functional;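 also: AlphaScreen bead proximity signal that flags compounds interfering with the detection technology; potency reflects signal decrease which marks the compound as an assay artifact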
# [8] = Luminescence Cell-Based Dose Retest to Confirm Inhibitors of Cancer Stem Cells. [Related pubchem assays (depositor defined):AID2717, AID2721]; type: functional; conditions: Homo sapiens
# [9] = target: Large T antigen (Simian virus 40, UniProt P03070); type: functional, Betapolyomavirus macacae;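 also: Confirmatory-stage PubChem screen for compounds that inhibit SV40 T antigen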
# [10] = target: T1, Rac GTPase-activating protein 1 (Homo sapiens, UniProt Q9H0H5); assay: MgcRacGAP GTPase-activating activity inhibitors, confirmation, biochemical, ADP Hunter fluorescence, primary and confirmatory (AID 624330); type: functional
# T1 sequence (Q9H0H5 whole entry): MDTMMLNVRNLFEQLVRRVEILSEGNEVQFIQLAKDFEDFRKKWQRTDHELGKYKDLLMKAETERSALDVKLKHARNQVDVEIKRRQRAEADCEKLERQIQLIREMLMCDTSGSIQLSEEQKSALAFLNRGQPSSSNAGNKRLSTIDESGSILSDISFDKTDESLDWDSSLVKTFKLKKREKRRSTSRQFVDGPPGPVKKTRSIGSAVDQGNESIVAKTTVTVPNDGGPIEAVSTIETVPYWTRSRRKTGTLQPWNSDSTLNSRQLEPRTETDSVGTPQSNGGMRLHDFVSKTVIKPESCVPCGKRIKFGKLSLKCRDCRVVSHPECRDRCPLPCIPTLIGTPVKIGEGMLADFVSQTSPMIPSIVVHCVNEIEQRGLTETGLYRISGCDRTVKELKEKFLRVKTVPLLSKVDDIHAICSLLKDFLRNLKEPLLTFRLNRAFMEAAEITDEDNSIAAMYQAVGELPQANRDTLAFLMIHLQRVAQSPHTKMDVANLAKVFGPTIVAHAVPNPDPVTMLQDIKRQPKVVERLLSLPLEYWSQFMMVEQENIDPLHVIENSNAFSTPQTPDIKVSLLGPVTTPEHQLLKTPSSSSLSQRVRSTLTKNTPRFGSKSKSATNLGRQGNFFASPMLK
# [11] = target: Nuclear receptor subfamily 0 group B member 1 (Homo sapiens, UniProt P51843); type: functional, cell-based;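 also: HEK293T cells transfected with SF-1 and DAX-1 plus StAR promoter luciferase reporter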
# [12] = cells; type: functional, cell-based
# [13] = target: T2, Probable nicotinate-nucleotide adenylyltransferase (Staphylococcus aureus (strain N315), UniProt P65502); type: functional, Staphylococcus aureus subsp. aureus N315;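 as to IC50 Mean: confirmatory dose-response retesting of NadD inhibitor hits first found in an ultra-high-throughput screen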
# [14] = target: T2, Probable nicotinate-nucleotide adenylyltransferase; type: functional, Staphylococcus aureus subsp. aureus N315; conditions: read-out: IC50_Mean
# [15] = target: T3, Carboxy-terminal domain RNA polymerase II polypeptide A small phosphatase 1 (Homo sapiens, UniProt Q9GZU7); assay: inhibitors of CTDSP1, concentration-response testing, biochemical assay, absorbance-based, actives from ultra-high-throughput screening (AID 540297); type: functional
# T3 sequence (Q9GZU7 whole entry): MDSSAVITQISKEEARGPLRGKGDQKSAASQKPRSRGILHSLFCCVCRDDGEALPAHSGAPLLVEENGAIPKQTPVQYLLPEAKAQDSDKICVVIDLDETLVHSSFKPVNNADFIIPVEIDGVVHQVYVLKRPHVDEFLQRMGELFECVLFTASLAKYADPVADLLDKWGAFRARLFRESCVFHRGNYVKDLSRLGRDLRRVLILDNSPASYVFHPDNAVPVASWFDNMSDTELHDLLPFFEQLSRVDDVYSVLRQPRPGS
# [16] = target: Endoplasmic reticulum aminopeptidase 1 (Homo sapiens, UniProt Q9NZ08); assay: ERAP1 aminopeptidase inhibitors, dose response, biochemical, cherry-pick, set 2, plate reader (AID 743314)
# [17] = target: Melanin-concentrating hormone receptor 1 (Homo sapiens, UniProt Q99705); assay: Late-stage fluorescence-based counterscreen for antagonists of the G-protein coupled receptor 7 (GPR7): cell-based dose response assay to identify antagonists of the melanin-concentrating hormone receptor 1 (MCHR1) Set 6.; type: functional
# [18] = Counterscreen for inhibitors of Trypanosoma brucei methionyl tRNA synthetase (MetRS): Luminescence-based cell-based high throughput dose response assay to identify compounds that are cytotoxic to Jurkat human T lymphocyte cells.; type: functional
# [19] = target: T4, Methionyl-tRNA synthetase, putative (Trypanosoma brucei brucei, UniProt Q38C91); type: functional, Trypanosoma brucei brucei strain 927/4 GUTat10.1
# T4 sequence (Q38C91 whole entry): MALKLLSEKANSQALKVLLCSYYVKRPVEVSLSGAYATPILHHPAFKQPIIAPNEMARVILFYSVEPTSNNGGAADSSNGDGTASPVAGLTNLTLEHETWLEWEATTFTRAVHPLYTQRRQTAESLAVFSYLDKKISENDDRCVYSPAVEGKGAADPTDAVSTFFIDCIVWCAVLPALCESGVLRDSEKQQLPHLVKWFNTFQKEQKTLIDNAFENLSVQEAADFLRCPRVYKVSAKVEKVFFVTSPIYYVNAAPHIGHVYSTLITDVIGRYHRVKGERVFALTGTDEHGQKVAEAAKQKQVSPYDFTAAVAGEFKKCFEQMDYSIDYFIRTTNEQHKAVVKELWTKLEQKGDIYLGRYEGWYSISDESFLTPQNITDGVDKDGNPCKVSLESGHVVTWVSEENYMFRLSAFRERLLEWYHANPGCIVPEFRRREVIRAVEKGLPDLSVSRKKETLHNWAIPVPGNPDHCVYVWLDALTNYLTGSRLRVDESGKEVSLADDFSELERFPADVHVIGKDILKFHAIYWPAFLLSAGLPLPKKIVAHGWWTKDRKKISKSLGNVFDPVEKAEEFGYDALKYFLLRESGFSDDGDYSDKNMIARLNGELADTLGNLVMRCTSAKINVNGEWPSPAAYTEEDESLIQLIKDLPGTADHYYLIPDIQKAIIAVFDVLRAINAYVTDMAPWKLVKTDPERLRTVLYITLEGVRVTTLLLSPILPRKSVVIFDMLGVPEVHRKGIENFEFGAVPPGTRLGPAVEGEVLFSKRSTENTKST
# [20] = target: T4, Methionyl-tRNA synthetase, putative; type: functional, Trypanosoma brucei brucei strain 927/4 GUTat10.1; remark: listed apart in the source
# [21] = ADAM10 protease inhibitors, dose response, selectivity assay for ADAM17 exosite inhibitor project, biochemical, FRET peptide substrate, recombinant human ADAM10 (AID 743259);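 also: ADAM10 enzyme cleaving a FRET peptide substrate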
# [22] = target: Disintegrin and metalloproteinase domain-containing protein 17 (Homo sapiens, UniProt P78536); assay: exosite inhibitors of ADAM17, dose response, biochemical (AID 743260)
# [23] = HEK293 cell cytotoxicity, dose response, cytotoxicity control, plate reader, cherry-picked samples (AID 743446); type: functional, cell-based
# [24] = miR-122 activators in hepatoma reporter cells, dose response, cell-based, Huh7 psiCHECK-miR122, Renilla luciferase, cherry-picked (AID 651956); type: functional;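 also: huh7 hepatoma cells stably carrying a psiCHECK-2 miR-122 sensor plasmid; renilla luciferase signal reporting endogenous miR-122 activity after 48 h compound exposure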
# [25] = LGR2 antagonists, dose response, cell-based, HEK293, CRE-luciferase reporter, cherry pick, set 2 (AID 743343); type: functional;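 also: transfected cells were stimulated with diluted bursicon conditioned medium after compound addition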
# [26] = MC4R antagonists, dose response, counter-screen for LGR2 antagonist project, cell-based, plate reader, cherry pick (AID 743444); type: functional;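 also: transfected HEK 293 cells stimulated with alpha-MSH peptide; potency of inhibitors of the alpha-MSH evoked signal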
# [27] = HepG2 cell cytotoxicity, dose response, cytotoxicity control, plate reader, cherry-pick, antagonist series (AID 743416); type: functional, cell-based
# [28] = HEK293T cytotoxicity, dose response, cytotoxicity control for miR-122 modulator project, cell-based, activator set, cherry-pick (AID 720690); type: functional;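 also: HEK293T human cells scored for general mammalian cytotoxicity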
# [29] = A549 cell cytotoxicity, dose response, cytotoxicity control, plate reader, cherry-pick, antagonist series (AID 743412); type: functional, cell-based
# [30] = test system: HeLa; assay: HeLa cell cytotoxicity, dose response, cytotoxicity control, ATP luminescence, cherry-pick samples (AID 687004); type: functional, cell-based; conditions: Homo sapiens
# [31] = test system: HEK293; assay: inhibitors of LMP1-driven NF-kB reporter, dose response, cell-based, HEK293, luciferase, cherry-pick (AID 588343); type: functional; conditions: Homo sapiens
# [32] = T. cruzi growth inhibition in host cells, dose response, cell-based, plate reader, dry powder, set 2 (AID 652275); type: functional
# T2 sequence (P65502 whole entry): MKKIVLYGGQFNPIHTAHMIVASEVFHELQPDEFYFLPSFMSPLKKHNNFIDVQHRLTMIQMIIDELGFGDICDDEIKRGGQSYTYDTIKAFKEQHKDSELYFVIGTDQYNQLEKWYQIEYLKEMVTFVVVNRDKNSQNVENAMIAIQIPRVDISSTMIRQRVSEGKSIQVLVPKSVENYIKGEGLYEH
# 72 kDa type IV collagenase, sequence (P08253 whole entry): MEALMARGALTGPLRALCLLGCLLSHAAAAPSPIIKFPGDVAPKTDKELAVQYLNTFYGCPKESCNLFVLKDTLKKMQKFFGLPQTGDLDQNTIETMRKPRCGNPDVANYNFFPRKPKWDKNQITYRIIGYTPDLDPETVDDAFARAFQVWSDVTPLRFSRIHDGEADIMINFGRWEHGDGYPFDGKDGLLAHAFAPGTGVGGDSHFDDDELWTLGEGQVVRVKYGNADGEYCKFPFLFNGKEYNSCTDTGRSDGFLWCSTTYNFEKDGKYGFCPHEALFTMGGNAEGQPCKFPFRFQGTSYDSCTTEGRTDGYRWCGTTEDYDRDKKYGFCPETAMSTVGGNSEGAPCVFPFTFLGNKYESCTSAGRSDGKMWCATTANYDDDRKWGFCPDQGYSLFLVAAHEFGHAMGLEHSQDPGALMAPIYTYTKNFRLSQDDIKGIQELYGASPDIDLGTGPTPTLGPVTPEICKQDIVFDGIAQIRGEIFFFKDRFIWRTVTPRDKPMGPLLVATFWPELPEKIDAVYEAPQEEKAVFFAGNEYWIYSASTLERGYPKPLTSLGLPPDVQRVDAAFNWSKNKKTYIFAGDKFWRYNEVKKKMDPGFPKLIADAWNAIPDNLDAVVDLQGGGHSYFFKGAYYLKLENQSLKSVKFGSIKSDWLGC
# Albumin, sequence (P02769 whole entry): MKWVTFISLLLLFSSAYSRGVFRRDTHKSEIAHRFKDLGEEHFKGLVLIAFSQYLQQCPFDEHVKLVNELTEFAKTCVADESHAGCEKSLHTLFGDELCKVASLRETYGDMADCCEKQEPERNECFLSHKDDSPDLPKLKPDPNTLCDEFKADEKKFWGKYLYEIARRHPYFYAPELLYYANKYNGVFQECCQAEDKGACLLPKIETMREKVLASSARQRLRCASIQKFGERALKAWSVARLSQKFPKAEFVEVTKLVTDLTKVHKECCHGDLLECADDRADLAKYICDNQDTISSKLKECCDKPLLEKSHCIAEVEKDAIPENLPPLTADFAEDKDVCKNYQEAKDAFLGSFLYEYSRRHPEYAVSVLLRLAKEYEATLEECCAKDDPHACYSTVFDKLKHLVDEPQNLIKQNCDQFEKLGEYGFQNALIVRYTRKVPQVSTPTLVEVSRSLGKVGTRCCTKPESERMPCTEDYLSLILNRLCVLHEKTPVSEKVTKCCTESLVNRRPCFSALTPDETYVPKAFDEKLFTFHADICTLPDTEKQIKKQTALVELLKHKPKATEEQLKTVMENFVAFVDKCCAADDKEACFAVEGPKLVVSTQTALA
# SWI/SNF-related matrix-associated actin-dependent regulator of chromatin subfamily A member 2, sequence (P51531 whole entry): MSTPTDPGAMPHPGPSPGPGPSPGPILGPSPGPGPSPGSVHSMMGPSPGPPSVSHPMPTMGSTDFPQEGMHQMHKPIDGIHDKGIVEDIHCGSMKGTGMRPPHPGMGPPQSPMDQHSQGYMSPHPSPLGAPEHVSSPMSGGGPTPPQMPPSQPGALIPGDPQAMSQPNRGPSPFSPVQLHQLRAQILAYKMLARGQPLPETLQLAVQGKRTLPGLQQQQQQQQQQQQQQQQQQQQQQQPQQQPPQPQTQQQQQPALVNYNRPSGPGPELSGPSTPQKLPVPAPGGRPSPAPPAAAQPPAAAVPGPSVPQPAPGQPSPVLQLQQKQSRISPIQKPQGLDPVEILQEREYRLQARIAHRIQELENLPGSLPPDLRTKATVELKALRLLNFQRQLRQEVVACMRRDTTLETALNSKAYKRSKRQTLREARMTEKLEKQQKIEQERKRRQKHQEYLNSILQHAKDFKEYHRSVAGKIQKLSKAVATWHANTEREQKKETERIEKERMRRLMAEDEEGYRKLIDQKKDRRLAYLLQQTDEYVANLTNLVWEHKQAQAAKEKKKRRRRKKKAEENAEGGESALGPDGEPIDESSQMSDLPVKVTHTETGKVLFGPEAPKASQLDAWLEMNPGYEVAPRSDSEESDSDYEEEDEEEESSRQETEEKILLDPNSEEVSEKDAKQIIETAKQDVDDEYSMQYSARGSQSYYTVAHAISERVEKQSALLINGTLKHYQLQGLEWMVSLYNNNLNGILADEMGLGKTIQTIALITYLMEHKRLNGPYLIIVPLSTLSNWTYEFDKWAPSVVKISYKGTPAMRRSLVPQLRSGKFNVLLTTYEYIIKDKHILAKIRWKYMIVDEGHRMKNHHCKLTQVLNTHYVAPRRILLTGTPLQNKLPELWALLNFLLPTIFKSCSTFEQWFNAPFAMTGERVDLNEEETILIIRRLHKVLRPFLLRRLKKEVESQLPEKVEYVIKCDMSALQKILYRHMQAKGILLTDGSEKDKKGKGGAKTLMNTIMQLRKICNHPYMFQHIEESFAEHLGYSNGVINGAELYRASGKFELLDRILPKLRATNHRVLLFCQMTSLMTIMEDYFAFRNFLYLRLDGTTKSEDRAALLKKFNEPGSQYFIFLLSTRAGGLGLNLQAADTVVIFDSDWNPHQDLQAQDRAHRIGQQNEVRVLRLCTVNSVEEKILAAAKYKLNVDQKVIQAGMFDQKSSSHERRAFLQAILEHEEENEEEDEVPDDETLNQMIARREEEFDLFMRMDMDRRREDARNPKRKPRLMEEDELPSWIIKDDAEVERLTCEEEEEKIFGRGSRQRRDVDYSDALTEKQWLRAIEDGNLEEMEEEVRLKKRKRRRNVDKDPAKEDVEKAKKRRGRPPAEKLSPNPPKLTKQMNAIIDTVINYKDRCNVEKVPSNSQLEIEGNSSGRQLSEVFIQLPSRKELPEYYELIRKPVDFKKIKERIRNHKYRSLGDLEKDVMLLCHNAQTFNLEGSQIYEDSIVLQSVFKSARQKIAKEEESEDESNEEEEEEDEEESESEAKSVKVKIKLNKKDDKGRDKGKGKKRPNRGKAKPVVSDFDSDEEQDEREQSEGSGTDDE
# Endoplasmic reticulum aminopeptidase 1, sequence (Q9NZ08 whole entry): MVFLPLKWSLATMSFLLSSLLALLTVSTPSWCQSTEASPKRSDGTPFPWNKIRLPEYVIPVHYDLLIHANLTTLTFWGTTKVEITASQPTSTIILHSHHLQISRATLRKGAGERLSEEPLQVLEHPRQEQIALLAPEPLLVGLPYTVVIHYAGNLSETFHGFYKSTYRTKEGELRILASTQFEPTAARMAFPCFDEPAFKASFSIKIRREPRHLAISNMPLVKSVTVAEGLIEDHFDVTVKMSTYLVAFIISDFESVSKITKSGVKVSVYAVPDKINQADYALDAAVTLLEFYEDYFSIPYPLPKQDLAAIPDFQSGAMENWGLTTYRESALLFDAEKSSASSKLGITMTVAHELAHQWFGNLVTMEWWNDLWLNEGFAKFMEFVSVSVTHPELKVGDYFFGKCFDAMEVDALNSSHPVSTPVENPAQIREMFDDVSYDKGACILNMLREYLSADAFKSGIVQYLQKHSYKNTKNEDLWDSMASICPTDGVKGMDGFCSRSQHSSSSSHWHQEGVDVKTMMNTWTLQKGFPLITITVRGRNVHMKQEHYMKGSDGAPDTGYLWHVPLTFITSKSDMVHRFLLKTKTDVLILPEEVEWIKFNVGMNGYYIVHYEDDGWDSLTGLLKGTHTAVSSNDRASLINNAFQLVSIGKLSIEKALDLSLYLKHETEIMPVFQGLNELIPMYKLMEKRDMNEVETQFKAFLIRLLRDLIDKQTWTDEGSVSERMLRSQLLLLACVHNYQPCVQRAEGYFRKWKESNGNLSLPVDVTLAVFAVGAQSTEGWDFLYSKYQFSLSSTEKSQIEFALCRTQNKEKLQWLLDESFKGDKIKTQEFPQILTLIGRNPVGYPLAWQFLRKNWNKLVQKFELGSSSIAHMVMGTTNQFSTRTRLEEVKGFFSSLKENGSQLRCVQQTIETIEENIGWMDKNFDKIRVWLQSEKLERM
# Nuclear receptor subfamily 0 group B member 1, sequence (P51843 whole entry): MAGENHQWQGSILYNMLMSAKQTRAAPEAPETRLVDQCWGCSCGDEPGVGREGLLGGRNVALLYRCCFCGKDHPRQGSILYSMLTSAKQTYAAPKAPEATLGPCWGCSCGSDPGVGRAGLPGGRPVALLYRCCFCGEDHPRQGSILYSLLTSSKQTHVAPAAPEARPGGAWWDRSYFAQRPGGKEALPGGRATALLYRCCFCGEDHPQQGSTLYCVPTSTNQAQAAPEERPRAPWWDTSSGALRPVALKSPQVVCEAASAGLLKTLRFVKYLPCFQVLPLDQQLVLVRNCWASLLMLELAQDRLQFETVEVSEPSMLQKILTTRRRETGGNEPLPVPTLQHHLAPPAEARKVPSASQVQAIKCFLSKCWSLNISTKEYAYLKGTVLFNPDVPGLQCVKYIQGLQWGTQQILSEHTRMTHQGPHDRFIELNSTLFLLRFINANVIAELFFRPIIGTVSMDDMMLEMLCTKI
# 26S proteasome non-ATPase regulatory subunit 14, sequence (O00487 whole entry): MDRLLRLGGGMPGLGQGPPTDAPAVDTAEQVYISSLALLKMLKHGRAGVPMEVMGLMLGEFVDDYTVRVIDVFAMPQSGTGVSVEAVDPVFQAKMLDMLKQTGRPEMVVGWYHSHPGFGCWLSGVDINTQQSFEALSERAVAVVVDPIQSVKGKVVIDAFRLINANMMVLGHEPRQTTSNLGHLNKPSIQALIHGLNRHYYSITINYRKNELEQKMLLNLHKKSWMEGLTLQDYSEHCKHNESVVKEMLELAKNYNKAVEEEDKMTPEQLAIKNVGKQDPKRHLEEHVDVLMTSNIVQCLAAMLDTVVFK
smiles,measurement,setting,value
O=C(NC(=S)Nc1ccc(Br)cn1)c1cccnc1,EC50,[1],> 91.2 µM (inactive)
same,EC50,[2],> 91.2 µM (inactive)
O=C(N/N=C/c1ccccc1)c1ccc(CN2C(=O)c3cccc4cccc2c34)cc1,IC50,[3],69.8 µM (active)
same,IC50,[4],10.7 µM (active)
same,IC50,[5],> 100 µM (inactive)
CC(C)C(=O)Nc1ccc(C(=O)NNC(=S)NC(=O)c2ccco2)cc1,IC50,[6],> 94.1 µM (inactive)
C=CCn1c(CNc2ccccc2)nnc1SCC(=O)N/N=C/c1ccc(O)cc1O,AC50,[7],102 µM (active)
same,AC50,[8],5.46 µM (active)
same,IC50,[9],> 100 µM (active)
same,IC50,[10],68.8 µM (active)
O=C(N/N=C/c1ccsc1)c1ccccn1,IC50,[11],> 67.5 µM (inactive)
same,IC50,[12],> 67.5 µM (inactive)
CN(CCC#N)C(=O)COC(=O)c1c2c(nc3ccccc13)/C(=C\c1ccco1)CC2,IC50,[6],> 94.1 µM (inactive)
same,IC50,[13],9.77 µM (active)
same,IC50,[14],18 µM (active)
same,IC50,[15],3.2 µM (active)
O=C(NCC1CC1)[C@H]1[C@H](CO)[C@H]2Cn3c(ccc(/C=C/c4ccccc4)c3=O)[C@@H]1N2C(=O)C1CC1,AC50,[16],7.13 µM (active)
COC(=O)c1nn(-c2ccc(C(C)C)cc2)c(=O)c(Oc2ccc(OC)cc2)c1Cl,IC50,[17],3.57 µM (active)
COc1ccc(C2c3ccc(O)cc3Oc3ncn4nc(-c5ccccn5)nc4c32)cc1OC (configuration not stated),AC50,[7],122 µM (active)
C=CCNC(=S)NNC(=O)c1ccc(=O)n(Cc2ccc(Cl)cc2Cl)c1,IC50,[18],83.3 µM (inactive)
same,IC50,[19],281 µM (inactive)
same,IC50,[20],13.4 µM (inactive)
N#Cc1cccc(NC(=O)c2cc(C3CCCCN3S(=O)(=O)c3ccccc3)on2)c1 (configuration not stated),IC50,[21],> 69.5 µM (inactive)
same,IC50,[22],> 69.5 µM (inactive)
C[C@H](CO)N1C[C@H](C)[C@H](CN(C)C(=O)Nc2cccc3ccccc23)Oc2ncc(C#Cc3ccc(C(F)(F)F)cc3)cc2C1=O,AC50,[23],41.4 µM (active)
same,AC50,[24],13.9 µM (active)
same,AC50,[25],41.1 µM (active)
same,AC50,[26],21.7 µM (active)
same,AC50,[27],23.1 µM (active)
same,AC50,[28],25.9 µM (active)
same,AC50,[29],21.3 µM (active)
CSc1nc2c(=S)n(C)c(=O)n(C)c2[nH]1,EC50,[1],> 91.2 µM (inactive)
same,EC50,[2],> 91.2 µM (inactive)
Cc1c(CC(=O)N2CCN(C(=O)C3COc4ccccc4O3)CC2)c(=O)oc2cc(O)c(Cl)cc12 (configuration not stated),AC50,[16],3.11 µM (active)
COc1ccc(CNC(=O)CSc2n[nH]c3c4cc(C)ccc4nc-3n2)cc1,IC50,[18],83.3 µM (inactive)
same,IC50,[19],11 µM (inactive)
same,IC50,[20],0.72 µM (active)
CN1C(=O)c2cc(NC(=O)Nc3ccc(Cl)cc3)ccc2OC[C@H]2O[C@@H](CC(=O)NCCN3CCCCC3)CC[C@@H]21,AC50,[30],22.7 µM (active)
CCOC(=O)CSc1nc2ccccc2n1C(=O)OCC,IC50,[3],28.1 µM (active)
same,IC50,[4],21.1 µM (active)
same,IC50,[5],> 100 µM (inactive)
C[C@H]1CN([C@@H](C)CO)C(=O)c2cc(NC(=O)Nc3ccc(F)cc3)ccc2O[C@@H]1CN(C)S(C)(=O)=O,AC50,[30],1.16 µM (active)
COC(=O)c1ccc2nc(-c3ccc4c(c3)OCO4)cn2c1,AC50,[23],> 52 µM (inactive)
same,AC50,[25],2.13 µM (active)
same,AC50,[31],1.57 µM (active)
same,IC50,[11],> 0.0925 µM (active)
same,AC50,[26],2.22 µM (active)
same,IC50,[12],> 67.5 µM (inactive)
same,AC50,[29],> 52 µM (inactive)
CC(C)(C)[S@+]([O-])N1Cc2cc(C(=O)NCc3ccc4c(c3)OCO4)nc(-c3cccc(-c4cccnc4)c3)c2[C@@H]1CCO,AC50,[32],1.14 µM (active)
O=C(CSc1nnc(-c2cc3ccccc3cc2O)n1Cc1ccco1)N1CCc2ccccc2C1,IC50,[13],9.71 µM (active)
same,IC50,[14],30.6 µM (active)
